Experiments:
S. aureus DSM 20231 [1] = assay: Bliss interaction score (quartile over a dose matrix) (fitness difference); higher = more antagonism (negative = synergy)
Procedure, shortened: (§1)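 Fitness was derived from optical density at entry into stationary phase, divided by the robust mean of the no-drug wells on the same plate. That reading was taken as OD595, and the ratio was capped at 1. Single-drug fitness was inferred from the combination data. The Bliss score, observed fitness minus the expected product of single-drug fitness, was summarised as quartiles over technical, biological and donor/recipient replicates.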

B. subtilis 168 [2] = assay: as above
Procedure, shortened: as §1

S. aureus Newman [3] = assay: as above
Procedure, shortened: as §1

S. pneumoniae D39V [4] = assay: as above
Procedure, shortened: as §1

S. aureus DSM 20231 [5] = assay: fitness (endpoint OD595 vs no drug) (fraction); higher = more growth
Procedure, shortened: (§2)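 Bacterial growth was followed in 384-well plates seeded at OD595 0.01, with 30 µl per well, or 55 µl for S. pneumoniae, in TSB, LB Lennox or CY at 37 °C. OD595 was read every 30 min for 14 h, and each reading had the first reading subtracted as background. Fitness is the background-corrected optical density at entry into stationary phase divided by the robust mean of the no-drug control wells. This ratio is capped at 1.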

B. subtilis 168 [6] = assay: as above
Procedure, shortened: as §2

S. aureus Newman [7] = assay: as above
Procedure, shortened: as §2

S. pneumoniae D39V [8] = assay: as above
Procedure, shortened: as §2
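Wherever Bliss interaction score (quartile over a dose matrix) is given: first quartile when negative (synergy) and third quartile when positive (antagonism).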

CO/N=C(\C(=O)N[C@@H]1C(=O)N2C(C(=O)O)=C(COC(C)=O)CS[C@H]12)c1csc(N)n1 [Cefotaxime] + C[n+]1ccc(-c2cc[n+](C)cc2)cc1 [Paraquat]
Conditions	Bliss interaction score
B. subtilis 168 [2]	-0.0771
S. aureus DSM 20231 [1]	-0.0739
S. aureus Newman [3]	-0.0297
S. pneumoniae D39V [4]	-0.0531

fitness, one replicate
Conditions	partner 1.25 µg/mL	partner 2.5 µg/mL	partner 5 µg/mL
B. subtilis 168 [6], first compound 0.00775 µg/mL	0.847	0.764	0.596
B. subtilis 168 [6], first compound 0.0155 µg/mL	0.694	0.613	0.332
B. subtilis 168 [6], first compound 0.031 µg/mL	0.494	0.423	0.279
S. aureus DSM 20231 [5], first compound 0.039 µg/mL	0.729	0.775	0.767
S. aureus Newman [7], first compound 0.625 µg/mL	0.0489	0.0421	0.0459
S. aureus Newman [7], first compound 1.25 µg/mL	0.0645	0.0717	0.0769
S. aureus Newman [7], first compound 2.5 µg/mL	0.0777	0.0674	0.0627

fitness
Conditions	partner 1.25 µg/mL	partner 1.5 µg/mL	partner 2.5 µg/mL	partner 3 µg/mL	partner 5 µg/mL	partner 6 µg/mL
B. subtilis 168 [6], first compound 0.5 µg/mL	0.199	–	0.171	–	0.166	–
B. subtilis 168 [6], first compound 1 µg/mL	0.108	–	0.0698	–	0.0734	–
B. subtilis 168 [6], first compound 2 µg/mL	0.0929	–	0.0597	–	0.0873	–
S. aureus DSM 20231 [5], first compound 0.078 µg/mL	0.762	–	0.767	–	0.748	–
S. aureus DSM 20231 [5], first compound 0.156 µg/mL	0.656	–	0.704	–	0.703	–
S. aureus DSM 20231 [5], first compound 0.312 µg/mL	0.611	–	0.664	–	0.65	–
S. aureus Newman [7], first compound 0.078 µg/mL	0.694	–	0.688	–	0.702	–
S. aureus Newman [7], first compound 0.156 µg/mL	0.521	–	0.542	–	0.573	–
S. aureus Newman [7], first compound 0.312 µg/mL	0.304	–	0.314	–	0.29	–
S. pneumoniae D39V [8], first compound 0.0018 µg/mL	–	0.986	–	0.971	–	0.957
S. pneumoniae D39V [8], first compound 0.0035 µg/mL	–	0.992	–	≥ 1	–	0.962
S. pneumoniae D39V [8], first compound 0.007 µg/mL	–	0.944	–	0.93	–	0.843

Cc1ncc([N+](=O)[O-])n1CCO [Metronidazole] + C[n+]1ccc(-c2cc[n+](C)cc2)cc1 [Paraquat]
Conditions	Bliss interaction score
B. subtilis 168 [2]	0.0442
S. aureus DSM 20231 [1]	0.0478
S. aureus Newman [3]	0.0779
S. pneumoniae D39V [4]	-0.0431

fitness
Conditions	first compound 0.625 µg/mL	first compound 1.073 µg/mL	first compound 1.25 µg/mL	first compound 2.145 µg/mL	first compound 2.5 µg/mL	first compound 4.29 µg/mL
B. subtilis 168 [6], partner 1.25 µg/mL	0.973	–	0.949	–	0.917	–
B. subtilis 168 [6], partner 2.5 µg/mL	0.957	–	0.929	–	0.917	–
B. subtilis 168 [6], partner 5 µg/mL	0.851	–	0.864	–	0.851	–
S. aureus DSM 20231 [5], partner 1.25 µg/mL	0.97	–	≥ 1	–	≥ 1	–
S. aureus DSM 20231 [5], partner 2.5 µg/mL	0.954	–	≥ 1	–	≥ 1	–
S. aureus DSM 20231 [5], partner 5 µg/mL	0.955	–	0.978	–	≥ 1	–
S. aureus Newman [7], partner 1.25 µg/mL	0.936	–	0.875	–	0.862	–
S. aureus Newman [7], partner 2.5 µg/mL	0.944	–	0.934	–	0.963	–
S. aureus Newman [7], partner 5 µg/mL	0.888	–	0.932	–	0.973	–
S. pneumoniae D39V [8], partner 1.5 µg/mL	–	0.969	–	0.958	–	0.899
S. pneumoniae D39V [8], partner 3 µg/mL	–	0.999	–	0.905	–	0.95
S. pneumoniae D39V [8], partner 6 µg/mL	–	0.982	–	0.803	–	0.912

fitness, one replicate
Conditions	first compound 0.781 µg/mL	first compound 1.25 µg/mL	first compound 1.562 µg/mL	first compound 2.5 µg/mL	first compound 3.124 µg/mL	first compound 5 µg/mL
S. aureus Newman [7], partner 1.25 µg/mL	0.916	–	0.899	–	0.844	–
S. aureus Newman [7], partner 2.5 µg/mL	0.951	–	0.874	–	0.908	–
S. aureus Newman [7], partner 5 µg/mL	0.919	–	0.907	–	0.984	–
S. pneumoniae D39V [8], partner 1.5 µg/mL	–	0.983	–	≥ 1	–	≥ 1
S. pneumoniae D39V [8], partner 3 µg/mL	–	0.99	–	≥ 1	–	≥ 1
S. pneumoniae D39V [8], partner 6 µg/mL	–	≥ 1	–	≥ 1	–	≥ 1

Cc1ncc([N+](=O)[O-])n1CCO [Metronidazole] + Cc1onc(-c2ccccc2)c1C(=O)N[C@@H]1C(=O)N2[C@@H]1SC(C)(C)[C@@H]2C(=O)O [Oxacillin]
Conditions	Bliss interaction score
B. subtilis 168 [2]	0.0534
S. aureus DSM 20231 [1]	0.0451
S. aureus Newman [3]	0.0703
S. pneumoniae D39V [4]	0.144

fitness
Conditions	first compound 0.625 µg/mL	first compound 1.073 µg/mL	first compound 1.25 µg/mL	first compound 2.145 µg/mL	first compound 2.5 µg/mL	first compound 4.29 µg/mL	first compound 5 µg/mL
B. subtilis 168 [6], partner 0.002 µg/mL	0.972	–	0.962	–	0.942	–	–
B. subtilis 168 [6], partner 0.004 µg/mL	0.957	–	≥ 1	–	0.942	–	–
B. subtilis 168 [6], partner 0.008 µg/mL	0.946	–	0.869	–	0.858	–	–
S. aureus DSM 20231 [5], partner 0.0156 µg/mL	0.937	–	≥ 1	–	0.991	–	–
S. aureus DSM 20231 [5], partner 0.0312 µg/mL	–	–	0.816	–	0.828	–	–
S. aureus DSM 20231 [5], partner 0.0625 µg/mL	0.632	–	0.645	–	–	–	–
S. aureus Newman [7], partner 0.0156 µg/mL	0.772	–	0.785	–	0.768	–	–
S. aureus Newman [7], partner 0.0312 µg/mL	0.737	–	0.786	–	0.702	–	–
S. aureus Newman [7], partner 0.0625 µg/mL	0.658	–	0.551	–	0.601	–	–
S. pneumoniae D39V [8], partner 0.01 µg/mL	–	0.971	0.985	0.891	0.981	0.965	0.97
S. pneumoniae D39V [8], partner 0.02 µg/mL	–	0.964	0.959	0.967	0.995	–	0.948
S. pneumoniae D39V [8], partner 0.04 µg/mL	–	0.845	0.625	0.888	0.648	0.839	0.566

fitness, one replicate
Conditions	first compound 0.625 µg/mL	first compound 0.781 µg/mL	first compound 1.25 µg/mL	first compound 1.562 µg/mL	first compound 2.5 µg/mL	first compound 3.124 µg/mL
B. subtilis 168 [6], partner 0.075 µg/mL	0.548	–	0.664	–	0.507	–
B. subtilis 168 [6], partner 0.15 µg/mL	0.0434	–	0.0679	–	0.0716	–
B. subtilis 168 [6], partner 0.3 µg/mL	0.0488	–	0.0601	–	0.0718	–
S. aureus Newman [7], partner 0.0156 µg/mL	–	0.826	–	0.749	–	0.817
S. aureus Newman [7], partner 0.0312 µg/mL	–	0.737	–	0.737	–	0.721
S. aureus Newman [7], partner 0.0625 µg/mL	–	0.655	–	0.643	–	0.705

— the supplement of paper PMC10627819
